As usually defined, the IC50 is the concentration that inhibits the measured activity by half.

Where only a bound is given, the exact number is not on record here.

One assay deals with MOLM14 cells. As to the kind of experiment: Proliferation assay (spheroid confluence, 8 days), MOLM14. The class given is cell-based, human. The settings on record: Homo sapiens, MOLM-14, MOLM14; read-out: spheroid assay_MOLM14 IC50. On the procedure:
The anti-proliferative effect of menin/MLL protein/protein interaction inhibitor test compounds was assessed in human leukemia cell lines. The cell line MOLM14 harbors a MLL translocation and expresses the MLL fusion protein MLL-AF9, respectively, as well as the wildtype protein from the second allele. OCI-AML3 cells that carry the NPM1c gene mutation were also tested. […] KO-52 was used as a control cell line containing two MLL (KMT2A) wildtype alleles in order to exclude compounds that display general cytotoxic effects.
MOLM14 cells were cultured in RPMI-1640 (Sigma Aldrich) supplemented with 10% heat-inactivated fetal bovine serum (HyClone), 2 mM L-glutamine (Sigma Aldrich) and 50 μg/ml gentamycin (Gibco). KO-52 and OCI-AML3 cell lines were propagated in alpha-MEM (Sigma Aldrich) supplemented with 20% heat-inactivated fetal bovine serum (HyClone), 2 mM L-glutamine (Sigma Aldrich) and 50 μg/ml gentamycin (Gibco).
In order to assess the anti-proliferative effects, 200 MOLM14 cells, 200 OCI-AML3 cells or 300 KO-52 cells were seeded in 200 μl media per well in 96-well round bottom, ultra-low attachment plates (Costar, catalogue number 7007). Cell seeding numbers were chosen based on growth curves to ensure linear growth throughout the experiment. Test compounds were added at different concentrations and the DMSO content was normalized to 0.3%. Cells were incubated for 8 days at 37° C. and 5% CO2. Spheroid like growth was measured in real-time by live-cell imaging (IncuCyteZOOM, Essenbio, 4×objective) acquiring images at day 8. Confluence (%) as a measure of spheroid size was determined using an integrated analysis tool.
In order to determine the effect of the test compounds over time, the confluence in each well as a measure of spheroid size, was calculated. Confluence of the highest dose of a reference compound was used as baseline for the LC (Low control) and the confluence of DMSO treated cells was used as 0% cytotoxicity (High Control, HC).
Absolute IC50 values were calculated as percent change in confluence as follows:
LC=Low Control: cells treated with e.g. 1 μM of the cytotoxic agent staurosporin, or e.g. cells treated with a high concentration of an alternative reference compound
HC=High Control: Mean confluence (%) (DMSO treated cells)
% Effect=100−(100*(Sample−LC)/(HC−LC))
GraphPad Prism (version 7.00) was used to calculate the IC50. Dose-response equation was used for the plot of % Effect vs Log10 compound concentration with a variable slope and fixing the maximum to 100% and the minimum to 0%.

Assay [1] deals with T1, menin/MLL (terbium chelate-labeled menin, FITC-MBM1 peptide) (Homo sapiens, UniProt O00255, T541A).
T1 construct: Menin (a.a 1-610-6xhis tag, 2.3 mg/mL in 20 mM Hepes)
T1 sequence (O00255 with tags, fused parts or gaps T541A): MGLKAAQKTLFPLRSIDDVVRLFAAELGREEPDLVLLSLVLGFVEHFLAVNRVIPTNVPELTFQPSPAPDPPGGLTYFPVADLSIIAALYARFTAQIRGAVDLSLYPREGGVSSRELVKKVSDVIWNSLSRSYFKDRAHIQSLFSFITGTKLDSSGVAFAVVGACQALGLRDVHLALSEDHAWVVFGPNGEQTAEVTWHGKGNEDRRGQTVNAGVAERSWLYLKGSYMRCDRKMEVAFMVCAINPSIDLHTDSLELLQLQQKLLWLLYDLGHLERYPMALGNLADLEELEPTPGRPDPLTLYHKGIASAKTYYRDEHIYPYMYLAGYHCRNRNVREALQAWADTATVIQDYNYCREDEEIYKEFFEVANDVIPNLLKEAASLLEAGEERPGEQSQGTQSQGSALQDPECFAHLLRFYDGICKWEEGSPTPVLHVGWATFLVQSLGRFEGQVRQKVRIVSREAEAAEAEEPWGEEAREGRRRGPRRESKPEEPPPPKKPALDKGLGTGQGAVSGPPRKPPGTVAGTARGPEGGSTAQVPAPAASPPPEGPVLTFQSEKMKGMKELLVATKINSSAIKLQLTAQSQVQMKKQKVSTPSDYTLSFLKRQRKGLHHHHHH
As to the kind of experiment: Menin/MLL homogenous time-resolved fluorescence (HTRF) assay. The settings on record: 30 min incubation. It is filed as binding. In short, it runs like this:
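Terbium-labeled menin (a.a. 1-610, His-tagged; […]) pre-incubated 30 min with compound, then 75 nM FITC-MBM1 peptide added for 15 min at ambient temperature in Tris pH 7.5 buffer, 0.5% DMSO. HTRF 520/490 nm ratio read; IC50 from 11-point four-fold titrations, typically from 10 μM.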
(In general: In TR-FRET formats the signal depends on donor and acceptor labels being close together.)

The subject of a further assay is MEIS1 mRNA expression. As to the kind of experiment: MEIS1 mRNA expression assay (Quantigene Singleplex) in MOLM14 cells. It is filed as cell-based, human. The settings on record: Homo sapiens, MOLM-14, 48 h, 48 hours incubation. In short, it runs like this:
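MOLM14 cells, 3,750/well, exposed to increasing compound concentrations for 48 h. MEIS1 mRNA measured by QuantiGene Singleplex branched-DNA hybridization (lysis 45 min, hybridization 18–22 h, both 55 °C), normalized to RPL28. IC50 fitted to background-corrected fold change versus DMSO.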

Consider `CN=[S@@](=O)(c1cc(F)ccc1-n1cc(C[C@H]2CCN(CC3CCN(C(C)=O)CC3)C2)c2c(C)cncc21)C(C)C` (single isomer, unassigned) [Compound 128d], for which the half-maximal inhibitory concentration (IC50) with MOLM14 cells came out at 89 nM; in assay [1] it was 0.104 nM; in the assay with MEIS1 mRNA expression, 419 nM.

On to `[2H]C([2H])([2H])N(C(=O)c1cc(F)ccc1-n1cc(C[C@@H]2CCN(CC3CCN(C(C)=O)CC3)C2)c2c(C)cncc21)C(C)C` [Compound 314], for which the IC50 in the assay with MOLM14 cells was determined as 6 nM; in assay [1], 0.055 nM; in the assay with MEIS1 mRNA expression, 19 nM.

As for `CC(=O)N1CCC(CN2CC[C@@H](Cc3cn(-c4ccc(F)cc4C(=O)N4CCC[C@@H]4CO)c4cncc(C)c34)C2)CC1` [Compound 322], the IC50 with MOLM14 cells is 323 nM; in assay [1], 0.152 nM; with MEIS1 mRNA expression it was around 547 nM.

On to `CC(=O)N1CCC(CN2CC[C@@H](Cc3cn(-c4ccc(F)cc4C(=O)N4CCC(O)C4C)c4cncc(C)c34)C2)CC1` (stereo in doubt) [Compound 325], for which the IC50 in the assay with MOLM14 cells was found to be 1050 nM; in assay [1], 0.337 nM; in the assay on MEIS1 mRNA expression, 1340 nM.

In the case of `CC(=O)N1CCC(CN2CC[C@@H](Cc3cn(-c4ccc(F)cc4C(=O)N4CCC(O)C4(C)C)c4cncc(C)c34)C2)CC1` (stereo partly drawn) [Compound 313], the results for the IC50 (in the assay on MOLM14 cells; in assay [1]; in the assay with MEIS1 mRNA expression) were 179 nM, 0.155 nM and 552 nM, respectively.

Take `CC(=O)N1CCC(CN2CC[C@@H](Cc3cn(-c4ccc(F)cc4C(=O)N(CCO)C(C)C)c4cncc(C)c34)C2)CC1` [Compound 326]: the 50% inhibitory concentration (IC50) in the assay with MOLM14 cells worked out at 16 nM; in assay [1], 0.038 nM; in the assay with MEIS1 mRNA expression, 23 nM.

Consider `CC(=O)N1CC([C@H](C)N2CC[C@@H](Cc3cn(-c4ccc(F)cc4C(=O)N(C)C(C)C)c4cncc(C)c34)C2)C1` (single isomer, unassigned) [Compound 176], for which the values for the IC50 (with MOLM14 cells; in assay [1]; with MEIS1 mRNA expression) were 46 nM, 0.2 nM and 306 nM, respectively.

As for `Cc1cncc2c1c(C[C@@H]1CCN(CC3CCN(C(=O)N4CCOCC4)CC3)C1)cn2-c1ccc(F)cc1C(=O)N(C)C(C)C` [Compound 174], the 50% inhibitory concentration (IC50) in the assay with MOLM14 cells turned out to be 7 nM; in assay [1], 0.048 nM; in the assay with MEIS1 mRNA expression, 34 nM.

Consider `Cc1cncc2c1c(C[C@@H]1CCN(CC3CCN(C)C(=O)C3)C1)cn2-c1ccc(F)cc1C(=O)N(C)C(C)C` (mixture of isomers) [Compound 171], for which the IC50 was 337 nM in the assay with MOLM14 cells, 0.581 nM in assay [1] and above 1000 nM in the assay on MEIS1 mRNA expression.

As to `Cc1cncc2c1c(C[C@H]1CCN(CC3CCN(C(=O)N(C)C)CC3)C1)cn2-c1ccc(F)cc1C(=O)N(C)C(C)C` [Compound 170], the concentration for half-maximal inhibition (IC50) with MOLM14 cells amounted to 14 nM; in assay [1], 0.155 nM; in the assay with MEIS1 mRNA expression, 79 nM.

For `CNC(=O)[C@H]1CC[C@H]([C@@H](C)N2CC(Cc3cn(-c4ccc(F)cc4C(=O)N(C)C(C)C)c4cncc(C)c34)C2)CC1` (single isomer, unassigned) [Compound 162], the results for the IC50 (in the assay on MOLM14 cells; in assay [1]; with MEIS1 mRNA expression) were 424 nM, 0.505 nM and above 1000 nM, respectively.

`COC(=O)[C@H]1CC[C@H](CN2CC[C@@H](Cc3cn(-c4ccc(F)cc4C(=O)N(C)C(C)C)c4cncc(C)c34)C2)CC1` [Compound 154]: the IC50 was found to be 91 nM with MOLM14 cells, 0.14 nM in assay [1] and 244 nM with MEIS1 mRNA expression.

On to `Cc1cncc2c1c(CC1CN(C[C@H]3CC[C@H](C(=O)NC4CC4)CC3)C1)cn2-c1ccc(F)cc1C(=O)N(C)C(C)C` [Compound 159], for which the results for the IC50 (with MOLM14 cells; in assay [1]; in the assay on MEIS1 mRNA expression) were 3 nM, 0.019 nM and 10 nM, respectively.

For the molecule `Cc1cncc2c1c(C[C@H]1CCN(CC3CCC(=O)NC3)C1)cn2-c1ccc(F)cc1C(=O)N(C)C(C)C` (mixture of isomers) [Compound 88], the IC50 in the assay with MOLM14 cells was 96 nM; in assay [1], 0.093 nM; with MEIS1 mRNA expression, 140 nM.

As for `Cc1cncc2c1c(C[C@@H]1CCN(C3CCN(S(C)(=O)=O)CC3)C1)cn2-c1ccc(F)cc1C(=O)N(C)C(C)C` [Compound 161], the IC50 with MOLM14 cells is 53 nM; in assay [1] it was 0.167 nM; in the assay with MEIS1 mRNA expression, 256 nM.

With `Cc1cncc2c1c(C[C@@H]1CCN(CC3CCOCC3)C1)cn2-c1ccc(F)cc1C(=O)N1C[C@H](O)C[C@H]1C` [Compound 359], the IC50 stood at 79 nM in the assay on MOLM14 cells, 0.166 nM in assay [1] and 358 nM in the assay on MEIS1 mRNA expression.

For the molecule `Cc1cncc2c1c(CC1CCN(CC3(C)CCN(C(=O)CO)CC3)C1)cn2-c1ccc(F)cc1C(=O)N(C)C(C)C` (single isomer, unassigned) [Compound 123], the half-maximal inhibitory concentration (IC50) turned out to be 16 nM in the assay on MOLM14 cells, 0.052 nM in assay [1] and 31 nM with MEIS1 mRNA expression.

In the case of `CNC(=O)[C@H]1CC[C@H](CN2CC([C@@H](C)c3cn(-c4ccc(F)cc4C(=O)N(C)C(C)C)c4cncc(C)c34)C2)CC1` (single isomer, unassigned) [Compound 164a], the results for the IC50 (in the assay with MOLM14 cells; in assay [1]; in the assay on MEIS1 mRNA expression) were 154 nM, 0.209 nM and 249 nM, respectively.

Regarding `Cc1cncc2c1c(C[C@@H]1CCN(C[C@H]3CCNC(=O)CC3)C1)cn2-c1ccc(F)cc1C(=O)N(C)C(C)C` (single isomer, unassigned) [Compound 169a], the values for the half-maximal inhibitory concentration (IC50) (with MOLM14 cells; in assay [1]; in the assay on MEIS1 mRNA expression) were 17 nM, 0.061 nM and 15 nM, respectively.

Turning to `Cc1cncc2c1c(C[C@H]1CCN([C@H](C)C3CCOCC3)C1)cn2-c1ccc(F)cc1C(=O)N(C)C(C)C` (single isomer, unassigned) [Compound 49a], the IC50 with MOLM14 cells amounted to 113 nM; in assay [1], 0.227 nM; in the assay on MEIS1 mRNA expression, 221 nM.

Turning to `Cc1cncc2c1c(CC1CN(C[C@H]3CC[C@H](C(=O)NCCC#N)CC3)C1)cn2-c1ccc(F)cc1C(=O)N(C)C(C)C` [Compound 155], the concentration for half-maximal inhibition (IC50) with MOLM14 cells was determined as 49 nM; in assay [1] it was 0.051 nM; in the assay on MEIS1 mRNA expression, 54 nM.

With `CN=[S@](=O)(c1cc(F)ccc1-n1cc(CC2CN(CC3CCOCC3)C2)c2c(C)cncc21)C(C)C` (single isomer, unassigned) [Compound 166a], the figures for the IC50 (with MOLM14 cells; in assay [1]; with MEIS1 mRNA expression) were 49 nM, 0.084 nM and 38 nM, respectively.

For the molecule `CN=[S@](=O)(c1cc(F)ccc1-n1cc(C[C@H]2CCN(CC3CCN(C(C)=O)CC3)C2)c2c(C)cncc21)C(C)C` (single isomer, unassigned) [Compound 128b], the half-maximal inhibitory concentration (IC50) in the assay on MOLM14 cells stood at 40 nM; in assay [1] it was 0.045 nM; with MEIS1 mRNA expression it was 65 nM.

Consider `CC(=O)N1CC([C@@H](C)N2CC[C@@H](Cc3cn(-c4ccc(F)cc4C(=O)N(C)C(C)C)c4cncc(C)c34)C2)C1` (single isomer, unassigned) [Compound 175], for which the concentration for half-maximal inhibition (IC50) in the assay on MOLM14 cells was 234 nM; in assay [1] it was 1.33 nM; with MEIS1 mRNA expression, around 1050 nM.

With `Cc1cncc2c1c(C[C@@H]1CCN(C[C@@H]3CCCCN3)C1)cn2-c1ccc(F)cc1C(=O)N(C)C(C)C` [Compound 148], the values for the concentration for half-maximal inhibition (IC50) (in the assay with MOLM14 cells; in assay [1]; in the assay with MEIS1 mRNA expression) were 88 nM, 0.086 nM and 238 nM, respectively.

The values are drawn from patent US20230250096A1, “SUBSTITUTED PHENYL-1H-PYRROLO[2,3-c] PYRIDINE DERIVATIVES” (Janssen Pharmaceutica NV, priority 2021, published 2023).
